From patent publication EP4722201A1, “3-PHENYLISOXAZOLINE-5-CARBOXAMIDE COMPOUND, AND PREPARATION METHOD THEREFOR, HERBICIDAL COMPOSITION THEREOF AND USE THEREOF” (Jiangsu Flag Chemical Industry Co., Ltd, priority 2023, dated 2024)

Columns and labels:
Type in all cases: in vivo
Cyperus iria [1] = assay: Indoor herbicide activity determination, Seed Treatment; pre-emergence (soil spray); details: read-out: Herbicidal activities (inhibition rate) Cyperus iria; for inhibition at 120 g/ha: 120 g a.i./ha; for inhibition at 60 g/ha: 60 g a.i./ha
How it was run: (§1)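 Weed seeds were sown in 7 cm pots of sandy nutrient soil (pH 6.1, 1% organic matter), covered, bottom-watered and held 24 h in a constant-temperature illuminated room before the soil surface was sprayed in a traveling spray tower. Fresh-weight inhibition versus untreated plants was scored 21 days later.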

Digitaria sanguinalis [2] = assay: as above; details: read-out: Herbicidal activities (inhibition rate) Digitaria sanguinalis; for inhibition at 120 g/ha: 120 g a.i./ha; for inhibition at 60 g/ha: 60 g a.i./ha
How it was run: as §1

Aegilops tauschii = assay: as above; details: read-out: Herbicidal activities (inhibition rate) Aegilops tauschii; for inhibition at 120 g/ha: 120 g a.i./ha; for inhibition at 60 g/ha: 60 g a.i./ha
How it was run: as §1

Alopecurus japonicus = assay: as above
How it was run: as §1

Lolium multiflorum = assay: as above
How it was run: as §1

Alopecurus myosuroides = assay: as above
How it was run: as §1

Leptochloa chinensis = assay: as above
How it was run: as §1

Eleusine indica = assay: as above
How it was run: as §1

Eclipta prostrata [3] = assay: as above; details: read-out: Herbicidal activities (inhibition rate) Eclipta prostrata; for inhibition at 120 g/ha: 120 g a.i./ha; for inhibition at 60 g/ha: 60 g a.i./ha
How it was run: as §1

Cyperus iria [4] = assay: Indoor herbicide activity determination, post-emergence (stem and leaf spray at 2-4 leaf stage); details: 504 h, determined 21 days later, read-out: Inhibition rate of fresh weight, Cyperus iria; for inhibition at 60 g/ha: 60 g a.i./ha; for inhibition at 30 g/ha: 30 g a.i./ha
How it was run: (§2)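 Potted weeds in sandy nutrient soil (pH 6.1, 1% organic matter) were grown in a constant-temperature illuminated room to the 2-4 leaf stage, then given a stem-and-leaf spray. Plants went back to the culture room once the spray had dried in shade. At 21 days, fresh weight inhibition % was calculated relative to untreated control plants.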

Digitaria sanguinalis [5] = assay: as above; details: 504 h, determined 21 days later, read-out: Inhibition rate of fresh weight, Digitaria sanguinalis; for inhibition at 60 g/ha: 60 g a.i./ha; for inhibition at 30 g/ha: 30 g a.i./ha
How it was run: as §2

Eclipta prostrata [6] = assay: as above; details: 504 h, determined 21 days later, read-out: Inhibition rate of fresh weight, Eclipta prostrata; for inhibition at 60 g/ha: 60 g a.i./ha; for inhibition at 30 g/ha: 30 g a.i./ha
How it was run: as §2

Row | Compound | inhibition at 60 g/ha (Cyperus iria [1]) | inhibition at 60 g/ha (Digitaria sanguinalis [2]) | inhibition at 60 g/ha (Aegilops tauschii) | inhibition at 60 g/ha (Eclipta prostrata [3]) | inhibition at 30 g/ha (Cyperus iria [4]) | inhibition at 30 g/ha (Digitaria sanguinalis [5]) | inhibition at 30 g/ha (Eclipta prostrata [6]) | also measured
1 | O=C(N[C@H]1C[C@@H](C(=O)O)C1)C1(C(F)(F)F)CC(c2cc(F)cc(F)c2)=NO1 (mixture of isomers) [I-206] |  |  |  |  |  |  |  | inhibition at 120 g/ha (Cyperus iria [1]): 80 to 100%; inhibition at 120 g/ha (Digitaria sanguinalis [2]): 80 to 100%; inhibition at 120 g/ha (Aegilops tauschii): 80 to 100%; Herbicidal activities, Alopecurus japonicus (inhibition rate class) (Alopecurus japonicus; Dosage 240 g a.i./ha): A (A indicates that the inhibition rate was greater than or equal to 80% to 100%); Herbicidal activities, Lolium multiflorum (inhibition rate class) (Lolium multiflorum; Dosage 240 g a.i./ha): A (A indicates that the inhibition rate was greater than or equal to 80% to 100%); Herbicidal activities, Alopecurus myosuroides (inhibition rate class) (Alopecurus myosuroides; Dosage 240 g a.i./ha): A (A indicates that the inhibition rate was greater than or equal to 80% to 100%); Herbicidal activities, Leptochloa chinensis (inhibition rate class) (Leptochloa chinensis; Dosage 240 g a.i./ha): A (A indicates that the inhibition rate was greater than or equal to 80% to 100%); Herbicidal activities, Eleusine indica (inhibition rate class) (Eleusine indica; Dosage 240 g a.i./ha): A (A indicates that the inhibition rate was greater than or equal to 80% to 100%); inhibition at 120 g/ha (Eclipta prostrata [3]): 60 to 80%; inhibition at 60 g/ha (Cyperus iria [4]): 80 to 100%; inhibition at 60 g/ha (Digitaria sanguinalis [5]): 80 to 100%; inhibition at 60 g/ha (Eclipta prostrata [6]): 80 to 100%
2 | COC(=O)[C@H]1C[C@@H](NC(=O)C2(C(F)(F)F)CC(c3cc(F)cc(F)c3)=NO2)C1 (mixture of isomers) [I-208] |  |  |  |  |  |  |  | inhibition at 120 g/ha (Cyperus iria [1]): 80 to 100%; inhibition at 120 g/ha (Digitaria sanguinalis [2]): 80 to 100%; inhibition at 120 g/ha (Aegilops tauschii): 80 to 100%; Herbicidal activities, Alopecurus japonicus (inhibition rate class) (Alopecurus japonicus; Dosage 240 g a.i./ha): A (A indicates that the inhibition rate was greater than or equal to 80% to 100%); Herbicidal activities, Lolium multiflorum (inhibition rate class) (Lolium multiflorum; Dosage 240 g a.i./ha): A (A indicates that the inhibition rate was greater than or equal to 80% to 100%); Herbicidal activities, Alopecurus myosuroides (inhibition rate class) (Alopecurus myosuroides; Dosage 240 g a.i./ha): A (A indicates that the inhibition rate was greater than or equal to 80% to 100%); Herbicidal activities, Leptochloa chinensis (inhibition rate class) (Leptochloa chinensis; Dosage 240 g a.i./ha): A (A indicates that the inhibition rate was greater than or equal to 80% to 100%); Herbicidal activities, Eleusine indica (inhibition rate class) (Eleusine indica; Dosage 240 g a.i./ha): A (A indicates that the inhibition rate was greater than or equal to 80% to 100%); inhibition at 120 g/ha (Eclipta prostrata [3]): 80 to 100%; inhibition at 60 g/ha (Cyperus iria [4]): 80 to 100%; inhibition at 60 g/ha (Digitaria sanguinalis [5]): 80 to 100%; inhibition at 60 g/ha (Eclipta prostrata [6]): 80 to 100%
3 | COC(=O)[C@@H]1CC[C@H](NC(=O)[C@@]2(C(F)(F)F)CC(c3cc(F)cc(F)c3)=NO2)C1 [CK3, reference compound] | 40 to 60% | 60 to 80% | 40 to 60% | 60 to 80% | 40 to 60% | 40 to 60% | < 20% | 
4 | COC(=O)[C@H]1CC[C@@H](NC(=O)[C@@]2(C(F)(F)F)CC(c3cc(F)cc(F)c3)=NO2)C1 [CK4, reference compound] | 40 to 60% | < 20% | < 20% | < 20% | 20 to 40% | 20 to 40% | < 20% | 
5 | O=C(O)[C@@H]1CC[C@H](NC(=O)[C@@]2(C(F)(F)F)CC(c3cc(F)cc(F)c3)=NO2)C1 [CK5, reference compound] | 60 to 80% | 60 to 80% | 20 to 40% | 40 to 60% | 40 to 60% | 40 to 60% | < 20% | 
6 | O=C(O)[C@H]1CC[C@@H](NC(=O)[C@@]2(C(F)(F)F)CC(c3cc(F)cc(F)c3)=NO2)C1 [CK6, reference compound] | 40 to 60% | < 20% | < 20% | < 20% | 20 to 40% | 20 to 40% | < 20% | 
7 | C=C[C@]1(C(=O)N[C@H]2C[C@@H](C(=O)OCC)C2)CC(c2cc(F)cc(F)c2)=NO1 [I-5] | 60 to 80% | 80 to 100% | 80 to 100% |  | 80 to 100% | 80 to 100% | 40 to 60% | Herbicidal activities, Alopecurus japonicus (inhibition rate class) (Alopecurus japonicus; Dosage 120 g a.i./ha): A (A indicates that the inhibition rate was greater than or equal to 80% to 100%); Herbicidal activities, Lolium multiflorum (inhibition rate class) (Lolium multiflorum; Dosage 120 g a.i./ha): A (A indicates that the inhibition rate was greater than or equal to 80% to 100%); Herbicidal activities, Alopecurus myosuroides (inhibition rate class) (Alopecurus myosuroides; Dosage 120 g a.i./ha): A (A indicates that the inhibition rate was greater than or equal to 80% to 100%); Herbicidal activities, Leptochloa chinensis (inhibition rate class) (Leptochloa chinensis; Dosage 120 g a.i./ha): A (A indicates that the inhibition rate was greater than or equal to 80% to 100%); Herbicidal activities, Eleusine indica (inhibition rate class) (Eleusine indica; Dosage 120 g a.i./ha): A (A indicates that the inhibition rate was greater than or equal to 80% to 100%)
8 | C=C[C@]1(C(=O)N[C@H]2CO[C@@H](C(=O)O)C2)CC(c2cc(F)cc(F)c2)=NO1 [icafolin, reference compound] | 20 to 40% | 20 to 40% | 40 to 60% | < 20% | 40 to 60% | 40 to 60% | < 20% | 
9 | C=CC1(C(=O)NC2COC(C(=O)OC)C2)CC(c2cc(F)cc(F)c2)=NO1 (centres unmarked) [icafolin-methyl, reference compound] | 20 to 40% | 20 to 40% | 40 to 60% | 40 to 60% | 40 to 60% | 40 to 60% | 40 to 60% | 
